Measured values as given in patent publication US8716247B2, “Peptides effective in the treatment of tumors and other conditions requiring the removal or destruction of cells” (Nymox Corporation, priority 2006, dated 2014).
Where no end group is shown, it is not given here.

Tested on: prostate
Assay: Intraprostatic infusion of S05A Peptides in rats: histological changes of cell death and prostate volume
Assay type: in vivo, Male Sprague-Dawley rats
Set-up: key to Histological Changes of Cell Death at 24 Hours / Histological Changes of Cell Death at 72 Hours: −: Absent; +: Present, Minimal; ++: Present, Moderate; +++: Present, Moderate and Diffuse; ++++: Present, Diffuse and Extensive
Conditions: for Calculated Mean Volume 24 Hours / Calculated Mean Volume 72 Hours / Calculated Mean Volume 7 Days: rat prostate volume from mean cross-sectional diameters, V=4/3π(D/2)^3; for Calculated Mean Volume 24 Hours / Calculated Mean Volume 72 Hours / Calculated Mean Volume 7 Days / Calculated Mean Volume Overall: 1.0 mg/kg intraprostatic; for Calculated Mean Volume Overall: rat prostate volume, overall across 24 hours, 72 hours and 7 days; for Histological Changes of Cell Death at 24 Hours / Histological Changes of Cell Death at 72 Hours: rat prostate, intraprostatic infusion 300 μl of 1 mg/mL in PBS pH 7.4 (1.0 mg/kg), H & E sections; for histological findings in prostate of treated rats: rat prostate after intraprostatic infusion, 1.0 mg/kg
Procedure: The purpose of this example was to determine the effect of S05A Peptides on tissue at sites of injection.
Male Sprague-Dawley rats (300 gram weight range) were anesthetized with ether and given one of the above S05A Peptides by intraprostatic infusion, a control injection of normal saline or no injection after open surgical visualization of the prostate. The injections consisted of 300 μl of the S05A Peptide 1 mg/mL in PBS pH 7.4. (1.0 mg/kg) (n=36). Rats were painlessly sacrificed after 24 hours (n=12), 72 hours (n=12) and 7 days (n=12). Prostate glands were dissected, fixed in 10% buffered formalin for 24 hours, embedded in paraffin, sectioned, and stained with H & E. For each animal the entire prostate gland was embedded and sectioned. All stained sections were examined histologically and measured. For each prostate at least […] histological sections were examined, and for each histological section two cross-sectional diameters (D) at 90° from each other were measured (total of ≧8 measurements per prostate). The mean of the cross-sectional diameters (D) for each group was used to estimate volume according to V=4/3π(D/2)^3 and the mean volume calculated for each group. Histological changes were assessed on the following scale:
+++ Present, Moderate and Diffuse
++++ Present, Diffuse and Extensive

| Substance | Calculated Mean Volume 24 Hours | Calculated Mean Volume 72 Hours | Calculated Mean Volume 7 Days | Calculated Mean Volume Overall | Histological Changes of Cell Death at 24 Hours | Histological Changes of Cell Death at 72 Hours | histological findings in prostate of treated rats |
| --- | --- | --- | --- | --- | --- | --- | --- |
| RIKLEIK [S05A-5] | 249 mm^3 | 408 mm^3 | 392 mm^3 | 350 mm^3 | + | + | – |
| IDQQVLSRIKLEI [S05A-7] | 180 mm^3 | 165 mm^3 | 357 mm^3 | 234 mm^3 | ++++ | ++++ | extensive cell death, necrosis, loss of glandular epithelium and atrophy |
| KLEIKRCL [S05A-3] | 249 mm^3 | 435 mm^3 | 463 mm^3 | 382 mm^3 | + | + | – |
| VLSRIKLEIKRCL [S05A-6] | 310 mm^3 | 493 mm^3 | 408 mm^3 | 404 mm^3 | + | + | – |
| IDQQVLSRI [S05A-2] | 180 mm^3 | 249 mm^3 | 165 mm^3 | 198 mm^3 | ++++ | ++++ | extensive cell death, necrosis, loss of glandular epithelium and atrophy |
| VLSRIK [S05A-4] | 357 mm^3 | 408 mm^3 | 333 mm^3 | 366 mm^3 | + | + | – |
